Measured values taken from US20090012140A1, “Preparation of Telmisartan Salts with Improved Solubility” (LEK PHARMACEUTICALS D.D, priority 2004, published 2009).

Columns and labels:
[1] = Amount dissolved after 30 minutes at 37° C. (50 mg of compound in 100 ml baker, stirring at 600/min); assay type: physicochemical; settings: for Solubility compared with sodium salt of telmisartan manufactured by lyophilization: comparison in words; for C30 min: 30 minutes, 37° C., 600/min
Method: (§1) In order to prepare a pharmaceutical composition physical properties were measured. The solubility of the telmisartan of its salt in accordance with our invention surpasses the solubility of known forms of telmisartan, and are above 10 μg/ml in phosphate buffer pH=6.8 and above 50 μg/ml in a physiologically relevant medium if measured as above. […] The salts are also very soluble in water (i.e dissolving approximately 500 mg/mL of Na salt Form 2 produces a very viscous solution, which can hardly be stirred with a magnetic stirrer.

Solubility in water = assay type: physicochemical; settings: produces a very viscous solution
Method: as §1

[2] = medium pH = 1.2, 50 mg in 100 ml
[3] = phosphate buffer pH = 6.8, 50 mg in 100 ml
[4] = physiologically relevant medium: phosphate buffer pH 6.76 + sodium taurocholate (2.5 mM) + lecitin (0.5 mM)

SMILES | C30 min [1, 2] [µg/mL] | C30 min [1, 3] [µg/mL] | C30 min [1, 4] [µg/mL] | Amount dissolving in water (Solubility in water) | Solubility compared with sodium salt of telmisartan manufactured by lyophilization [1] | Solubility compared with sodium salt of telmisartan manufactured by lyophilization ([1]; listed as crystalline sodium salt of telmisartan)
CCCc1nc2c(C)cc(-c3nc4ccccc4n3C)cc2n1Cc1ccc(-c2ccccc2C(=O)[O-])cc1.[Na+] |  |  |  |  | substantially surpasses that manufactured by lyophilization | 
CCCc1nc2c(C)cc(-c3nc4ccccc4n3C)cc2n1Cc1ccc(-c2ccccc2C(=O)[O-])cc1.[Na+] [Amorphous Na salt of telmisartan, Na Salt of Telmisartan] | 394.6 | 29 | 167.3 |  |  | 
CCCc1nc2c(C)cc(-c3nc4ccccc4n3C)cc2n1Cc1ccc(-c2ccccc2C(=O)O)cc1 [Amorphous telmisartan, telmisartan] |  | 17.6 | 87.5 |  |  | 

More lines, main results first:

C30 min [1, 2] [µg/mL] | C30 min [1, 3] [µg/mL] | C30 min [1, 4] [µg/mL] | Amount dissolving in water (Solubility in water) | SMILES | Solubility compared with sodium salt of telmisartan manufactured by lyophilization [1] | Solubility compared with sodium salt of telmisartan manufactured by lyophilization ([1]; listed as crystalline sodium salt of telmisartan)
>500 | 0.9 | 1.1 |  | CCCc1nc2c(C)cc(-c3nc4ccccc4n3C)cc2n1Cc1ccc(-c2ccccc2C(=O)O)cc1 [Form A, telmisartan] |  | 
 |  |  | approximately 500 mg/mL | CCCc1nc2c(C)cc(-c3nc4ccccc4n3C)cc2n1Cc1ccc(-c2ccccc2C(=O)[O-])cc1.[Na+] [Na salt Form 2, Crystalline Na Salt of Telmisartane Form 2] |  | surpasses that of the sodium salt of telmisartan manufactured by lyophilization
